Legend:
HiBiT-tagged MDM2 = molecular target: T1, HiBiT-tagged MDM2 (Homo sapiens, UniProt Q00987); assay: MDM2 HiBit HEK293T degradation; format: cell-based; details: HEK293T cells stably expressing C-terminally HiBiT-tagged MDM2; 4 h; read-out: MDM2 HiBit HEK293T degradation 4 h: Average external-Abs DC50
T1 construct: expressed in transfected cells
Outline: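 Degradation was measured in HEK293T cells stably expressing C-terminally HiBiT-tagged MDM2, a pool selected with 1 microgram/ml puromycin. A MDM2 tool degrader and HaloPROTAC3 served as positive controls. Potency is reported as DC50 in letter bins.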

RS411 cells = assay: Cell Viability CTG Assay; format: cell-based; details: Homo sapiens, RS4-11, CellTiter Glo (CTG) cell viability, read-out: Average external-IC50
Protocol: Compounds or DMSO 60 nL were stamped to the cell plate as the platemap. RS411 cells were centrifuged at 800 rpm for 5 min, suspended with culture medium, and counted with Countess (Invitrogen). The cell density was adjusted to the recommend information. 30 μL of cell solution (1000 cells/well) was added to the assay plate as the platemap and 30 μL of media was added to column 2 and column 23 as the platemap. The plate was spun down briefly. The final concentration of the compounds started at 10 μM (3 fold dilution and 11 doses) and final DMSO concentration was 0.2%. The plate was spun down briefly and incubated at 37° C., 5% CO2 for 1 day. […] 30 μL CellTiter Glo reagent was added to each well and the plate was centrifuged at 1000 rpm for 30 sec. The plate was shaken for 1 min and centrifuged at 1000 rpm for 30 sec. The plate was incubated at RT for 10 min to stabilize the luminescent signal and the luminescence was read by EnVision.
The letter codes for IC50 indicate the concentration of compound required to affect 50% of cells: A (<0.005 μM), B (0.005-0.05 μM), C (0.05-0.5 μM), and D (>0.5 μM).

T1 sequence (Q00987 whole entry): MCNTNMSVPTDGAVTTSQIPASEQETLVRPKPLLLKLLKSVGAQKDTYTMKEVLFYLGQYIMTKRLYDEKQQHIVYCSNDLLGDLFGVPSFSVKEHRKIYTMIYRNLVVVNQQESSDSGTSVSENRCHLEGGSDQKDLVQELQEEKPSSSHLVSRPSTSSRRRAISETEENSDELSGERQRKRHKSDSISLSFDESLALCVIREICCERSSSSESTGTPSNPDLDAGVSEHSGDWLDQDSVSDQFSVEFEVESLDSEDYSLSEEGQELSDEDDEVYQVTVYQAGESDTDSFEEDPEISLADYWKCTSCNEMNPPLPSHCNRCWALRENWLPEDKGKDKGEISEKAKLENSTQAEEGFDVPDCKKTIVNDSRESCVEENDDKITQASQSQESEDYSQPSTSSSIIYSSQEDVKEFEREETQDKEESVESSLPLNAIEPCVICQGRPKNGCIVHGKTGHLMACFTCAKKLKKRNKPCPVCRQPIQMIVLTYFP

SMILES	DC50 (HiBiT-tagged MDM2) [nM]	IC50 (RS411 cells) [nM]
Cn1c(=O)n(C2CCC(=O)NC2=O)c2ccc(C3CCN(CCCN4CCC(NC(=O)[C@@H]5NC6(CCCCC6)[C@@]6(C(=O)Nc7cc(Cl)ccc76)[C@H]5c5cccc(Cl)c5F)CC4)CC3)cc21 (some centres unmarked) [I-39]	< 10	5 to 50
CN1CCN(C[C@H]2CC[C@H](NC(=O)[C@@H]3NC4(CCCCC4)[C@@]4(C(=O)Nc5cc(Cl)ccc54)[C@H]3c3cccc(Cl)c3F)CC2)C[C@H]1CCc1ccc2c(c1)n(C)c(=O)n2C1CCC(=O)NC1=O (some centres unmarked) [I-1]	< 10	< 5
Cn1c(=O)n(C2CCC(=O)NC2=O)c2ccc(N3CCC(OC4CCN(C[C@H]5CC[C@H](NC(=O)[C@@H]6NC7(CCCCC7)[C@@]7(C(=O)Nc8cc(Cl)ccc87)[C@H]6c6cccc(Cl)c6F)CC5)CC4)CC3)cc21 (some centres unmarked) [I-18]	< 10	< 5
Cn1c(=O)n(C2CCC(=O)NC2=O)c2ccc(C3CCN(C[C@H]4CC[C@H](NC(=O)[C@@H]5NC6(CCCCC6)[C@@]6(C(=O)Nc7cc(CC8CC8)ccc76)[C@H]5c5cccc(Cl)c5F)CC4)CC3)cc21 (some centres unmarked) [I-94]	> 1000	> 500
CC1(C)CCC2(CC1)NC(C(=O)N[C@H]1CC[C@H](CN3CCN(CCCc4ccn5c(N6CCC(=O)NC6=O)cnc5c4)CC3)CC1)[C@H](c1ccnc(Cl)c1F)[C@]21C(=O)Nc2cc(Cl)ccc21 (some centres unmarked) [I-26]	< 10	< 5
Cn1c(=O)n(C2CCC(=O)NC2=O)c2ccc(CCCN3CCN(C(=O)[C@H]4CC[C@H](NC(=O)[C@@H]5NC6(CCCCC6)[C@@]6(C(=O)Nc7cc(Cl)ccc76)[C@H]5c5cccc(Cl)c5F)CC4)CC3)cc21 (some centres unmarked) [I-30]	< 10	< 5
COc1cc2c(cc1OC(C)C)[C@H](c1ccc(Cl)cc1)N(c1ccc(N(C)C[C@H]3CC[C@H](N4CCN(Cc5ccc6c(c5)n(C)c(=O)n6C5CCC(=O)NC5=O)CC4)CC3)cc1)C(=O)C2 (some centres unmarked) [I-60]	< 10	< 5
Cn1c(=O)n(C2CCC(=O)NC2=O)c2ccc(CCN3CCN(C(=O)CN4CCC(NC(=O)[C@@H]5NC6(CCC(C)(C)CC6)[C@@]6(C(=O)Nc7cc(Cl)ccc76)[C@H]5c5ccnc(Cl)c5F)CC4)CC3)cc21 (stereo partly drawn) [I-32, (3′R,4′S,5′R)-6″-chloro-4′-(2-chloro-3-fluoropyridin-4-yl)-N-(1-(2-(4-(2-(1-(2,6-dioxopiperidin-3-yl)-3-methyl-2-oxo-2,3-dihydro-1H-benzo[d]imidazol-5-yl)ethyl)piperazin-1-yl)-2-oxoethyl)piperidin-4-yl)-4,4-dimethyl-2″-oxodispiro[cyclohexane-1,2′-pyrrolidine-3′,3″-indoline]-5′-carboxamide]	< 10	< 5
COc1cc2c(cc1OC(C)C)[C@H](c1ccc(Cl)cc1)N(c1ccc(N(C)CCC3CCN(CCCCC#Cc4cccn5c(N6CCC(=O)NC6=O)cnc45)CC3)cc1)C(=O)C2 [I-22]	> 1000	50 to 500
Cn1c(=O)n(C2CCC(=O)NC2=O)c2ccc(N3CC4(CCN(C(=O)[C@H]5CC[C@H](NC(=O)[C@@H]6NC7(CCCCC7)[C@@]7(C(=O)Nc8cc(Cl)ccc87)[C@H]6c6cccc(Cl)c6F)CC5)CC4)C3)cc21 (some centres unmarked) [I-86]	< 10	< 5
Cn1c(=O)n(C2CCC(=O)NC2=O)c2ccc(C3CCN(S(=O)(=O)NC(=O)[C@H]4CC[C@H](NC(=O)[C@@H]5NC6(CCCCC6)[C@@]6(C(=O)Nc7cc(Cl)ccc76)[C@H]5c5cccc(Cl)c5F)CC4)CC3)cc21 (some centres unmarked) [I-80]	< 10	< 5
Cn1c(=O)n(C2CCC(=O)NC2=O)c2ccc(CN3CC(OC4CN(C[C@H]5CC[C@H](NC(=O)[C@@H]6NC7(CCCCC7)[C@@]7(C(=O)Nc8cc(Cl)ccc87)[C@H]6c6cccc(Cl)c6F)CC5)C4)C3)cc21 (some centres unmarked) [I-59]	< 10	5 to 50
Cn1c(=O)n(C2CCC(=O)NC2=O)c2ccc(C(=O)N3CC(OC4CN(C[C@H]5CC[C@H](NC(=O)[C@@H]6NC7(CCCCC7)[C@@]7(C(=O)Nc8cc(Cl)ccc87)[C@H]6c6cccc(Cl)c6F)CC5)C4)C3)cc21 (some centres unmarked) [I-58]	< 10	5 to 50
Cn1c(=O)n(C2CCC(=O)NC2=O)c2ccc(CCN3CCC(NC(=O)[C@@H]4NC5(CCCCC5)[C@@]5(C(=O)Nc6cc(Cl)ccc65)[C@H]4c4cccc(Cl)c4F)CC3)cc21 (some centres unmarked) [I-97]	< 10	5 to 50
Cn1c(=O)n(C2CCC(=O)NC2=O)c2ccc(N3CC4(CN(C[C@H]5CC[C@H](NC(=O)[C@@H]6NC7(CCCCC7)[C@@]7(C(=O)Nc8cc(Cl)ccc87)[C@H]6c6cccc(Cl)c6F)CC5)C4)C3)cc21 (some centres unmarked) [I-88]	< 10	< 5
Cn1c(=O)n(C2CCC(=O)NC2=O)c2ccc(C#CC3CCN(C[C@H]4CC[C@H](NC(=O)[C@@H]5NC6(CCC(C)(C)CC6)[C@@]6(C(=O)Nc7cc(Cl)ccc76)[C@H]5c5ccnc(Cl)c5F)CC4)C(=O)C3)cc21 (some centres unmarked) [I-77]	< 10	5 to 50

Source: patent US20250034147A1, “MDM2 DEGRADERS AND USES THEREOF” (Kymera Therapeutics, Inc., priority 2021, published 2025)
